Measurements published in the NIST ThermoML archive (doi:10.1021/je900366m).
± gives the expanded uncertainty stated by the source.

What was measured:
[1] = refractive index (Na D-line) (dimensionless); settings: 293.1 K; 101.33 kPa; Liquid; Standard Abbe refractometry
[2] = 298.15 K; 101.33 kPa; Liquid; Pycnometric method

For C1COCCO1 [1,4-dioxane], which refractive index [1] is on record?
Its refractive index is 1.422 ± 0.0004.

And the mass density [2]?
The mass density was 1025.9 ± 0.4 kg/m3.

What does the source list for CC=C(C)CCCC(C)(C)O [6-octen-2-ol, 2,6-dimethyl-]?
refractive index [1]: 1.4408 ± 0.0004; mass density [2]: 831.8 ± 0.3 kg/m3
